Key:
[1] = tested on: rat CaMKIIδ; assay: CaMKIIδ shRNA knockdown and rescue in cultured neonatal cardiomyocytes; type: cell-based; details: shRNA-treated cells; for Rescue of apoptotic response to AngII: 24 hours
Procedure: (§1) Myocyte isolations from neonatal mouse or rat pups were modified from previously described methods (Mohler e.g., 2007). To generate the primary cardiomyocyte cultures, hearts were dissected from P1 animals and placed in 1 mL of Ham's F-10. Atrial tissue was removed and the ventricular chambers were rinsed to remove any remaining blood. Hearts were transferred into 1.5 mL of 0.05% Trypsin, 200 μM EDTA in Ham's F-10 medium (Mediatech). Hearts were minced into approximately 20 small pieces using forceps and small scissors and incubated in the Trypsin/EDTA medium at 37° C. Following 15 min, the heart pieces were mixed by a Pasteur pipette and incubated for an additional 15 min. A mixture of 200 μL of soybean trypsin inhibitor (2 mg/mL; Worthington) and 200 μL of collagenase (0.2 mg/mL; 1980 units/mg; Sigma) was incubated with the cells for 35-50 min at 37° C. The cell suspension was pelleted, resuspended in “Complete Medium” (40% DMEM, 40% Ham's F-10, 20% FCS), and plated on plastic dishes. Following five hours, the non-adhered cells (cardiomyocytes) were aspirated from the plate, pelleted, resuspended in Complete Medium, and plated on Mattek tissue culture plates (fibronectin-coated; Roche). Cardiomyocytes were washed with Ham's F-10 and Medium was replaced with “Defined Medium” to prevent the growth of fibroblasts. 100× Defined Medium consists of 100 μg/mL insulin, 500 μg/mL transferrin, 100 nM LiCl, 100 nM NaSeO4, and 10 nM thyroxine. To ensure that pure populations of cardiomyocytes were obtained, cultures were immunolabeled with alpha-actinin Ig (cardiomyocyte-specific marker). Only cultures with >90% cardiomyocytes were used in experiments. (See FIG. 12.) Lentiviral treatments (shRNA, rescue constructs) and apoptosis inducing agents (Iso, AngII) were used for 24 hours. Cells were fixed in 4% paraformaldehyde, permeabilized in 0.1% Triton X-100 and sodium citrate, and stained using In Situ cell death detection kits, TMR Red (Roche). TUNEL stain assays were interpreted as previously described (Yang e.g., 2006). Nuclei were co-stained with DAPI. Investigators were blinded to the genetic identity and treatment of the mice in all studies.
The CaMKIIδ-specific shRNA target sequence was selected based on the algorithm of Chalk, Wahlestedt, and Sonnhammer and others (Hammond e.g., 2000; Bernstein e.g., 2001; Brummelkamp e.g., 2002). […] Sense and anti-sense sequences were created and ligated into a modified pFIV lentiviral vector (SBI). For rescue experiments, full-length rat CaMKIIδ was cloned into pCDH1-MCS1-EF1-copOFP (SBI) and completely sequenced. The resulting construct was then modified to be shRNA resistant by engineering conserved residue wobble base changes at four positions in the template (CTG[A]-GCT[C]-ACG[A]-AGA[G] (SEQ ID NO:7))→LATR to LATR. […]

[2] = target: T1, CaMKIIδ (Mus musculus, UniProt Q6PHZ2); type: biochemical
T1 sequence (Q6PHZ2 2-499): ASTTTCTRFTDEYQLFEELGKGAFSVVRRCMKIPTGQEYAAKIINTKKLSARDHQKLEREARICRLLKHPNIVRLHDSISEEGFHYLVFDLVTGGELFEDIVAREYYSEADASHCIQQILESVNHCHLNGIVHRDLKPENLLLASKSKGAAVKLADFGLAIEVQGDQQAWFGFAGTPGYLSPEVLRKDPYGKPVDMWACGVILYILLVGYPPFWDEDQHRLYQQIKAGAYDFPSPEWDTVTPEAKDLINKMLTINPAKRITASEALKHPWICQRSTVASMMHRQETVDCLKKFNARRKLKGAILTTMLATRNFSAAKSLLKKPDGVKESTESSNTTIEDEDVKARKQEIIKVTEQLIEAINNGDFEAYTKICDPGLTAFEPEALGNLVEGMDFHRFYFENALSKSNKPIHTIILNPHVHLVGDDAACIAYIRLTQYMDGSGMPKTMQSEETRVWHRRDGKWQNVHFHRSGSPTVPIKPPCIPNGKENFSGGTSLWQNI
Procedure: (§2) Mutant CaMKII cDNAs were generated using a QuikChange site-directed mutagenesis kit (Stratagene). CaMKIIδ (GenBank #NP_001020609) was generated using the Bac-to-Bac baculovirus system (Invitrogen) and purified on a calmodulin-agarose column. For CaMKII activity assays, purified CaMKII was pretreated with 200 μM CaCl2 and 1 μM CaM on ice for 1 minute. The protein was then exposed to ATP, H2O2, or water at the described concentrations for 10 minutes. Samples exposed to ATP or H2O2 were then treated with 10 mM EGTA for 10 minutes. CaMKII activity was measured as a function of ^32P-ATP incorporation into a synthetic substrate (syntide-2) at 30° C., as previously described (Wu e.g., 2002).
(§3) CaMKII is activated by Ca^2+/CaM, but autophosphorylation at T287 sustains catalytic activity after dissociation of Ca^2+/CaM (FIG. 1A) because the negatively charged phosphate prevents reassociation of the catalytic domain and autoinhibitory region (Hudmon and Schulman, 2002). CaMKII activity may also be enhanced by pro-oxidant conditions (Zhu e.g., 2007); it therefore was hypothesized that oxidation of the regulatory domain in the vicinity of T287 could sustain CaMKII catalytic activity by an analogous mechanism.
(§4) These mutants were exposed to H2O2 and assayed for activity in the presence of EGTA (FIG. 1C). […] While the paired methionine motif is conserved in the β, γ, and δ isoforms of CaMKII, the neuronal α isoform substitutes a cysteine residue for the first methionine of the pair (position 280 in CaMKIIα). The side chain of cysteine is also susceptible to oxidation. A M281C mutant of CaMKIIδ was generated to mimic the substitution in CaMKIIα. Additionally, CaMKIIα was generated and purified. […] To further elucidate the role of M281 and M282 in ROS-dependent activation, these sites were individually mutated. […]

[3] = target: CaMKIIα (Homo sapiens, UniProt Q9UQM7)
Sequence of CaMKIIα (Q9UQM7 whole entry): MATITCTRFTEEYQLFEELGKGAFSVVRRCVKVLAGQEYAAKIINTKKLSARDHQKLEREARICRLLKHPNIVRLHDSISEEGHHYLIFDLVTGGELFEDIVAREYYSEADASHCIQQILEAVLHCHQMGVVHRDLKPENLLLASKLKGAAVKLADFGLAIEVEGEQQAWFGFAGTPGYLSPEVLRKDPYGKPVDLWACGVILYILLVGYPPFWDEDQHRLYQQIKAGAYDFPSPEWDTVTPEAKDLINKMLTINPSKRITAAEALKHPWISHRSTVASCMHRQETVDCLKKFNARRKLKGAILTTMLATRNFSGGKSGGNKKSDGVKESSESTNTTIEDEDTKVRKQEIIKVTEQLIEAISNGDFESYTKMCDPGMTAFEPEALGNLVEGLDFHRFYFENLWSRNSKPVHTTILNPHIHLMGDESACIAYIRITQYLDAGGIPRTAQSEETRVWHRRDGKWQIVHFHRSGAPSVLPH
Procedure: as §2
These mutants were exposed to H2O2 and assayed for activity in the presence of EGTA (FIG. 1C). […] While the paired methionine motif is conserved in the β, γ, and δ isoforms of CaMKII, the neuronal α isoform substitutes a cysteine residue for the first methionine of the pair (position 280 in CaMKIIα). The side chain of cysteine is also susceptible to oxidation. A M281C mutant of CaMKIIδ was generated to mimic the substitution in CaMKIIα. Additionally, CaMKIIα was generated and purified. […] To further elucidate the role of M281 and M282 in ROS-dependent activation, these sites were individually mutated.

[4] = tested on: cardiomyocytes; assay: Isolated cardiomyocyte TUNEL staining; type: cell-based, mouse
Procedure: as §1
Cardiomyocytes from mice that express an inhibitory peptide against CaMKII (AC3-I, Zhang e.g., 2005) were treated with 100 nM AngII for 24 hours in parallel with isolated cardiomyocytes from WT and p47^−/− mice. […] Activity assays for caspase-3, a downstream target enzyme in the CaMKII apoptotic signaling pathway in heart, recapitulated the results from the TUNEL assay (FIG. 7A).

[5] = target: Ca^2+/CaM/CaMKII complex (Mus musculus, UniProt Q6PHZ2); type: binding
Procedure: Spectra were collected at 30° C. using a Fluorolog 3 (Jobin Yvon, Horiba) spectrofluorometer. For intrinsic fluorescence shift experiments, excitation wavelength was 270 nm. Emission spectra were generated at Iran increments from 280 nm to 400 nm. Background traces were subtracted from CaMKII spectra to eliminate the contribution from intrinsic fluorescence of CaM. For fluorescence anisotropy experiments, baseline traces of 100 nM dansylated CaM in 15 mM HEPES buffer, pH 7.2 were measured at baseline and after the addition of 200 μM CaCl2 at 60 s. At 180 s, 100 nM purified CaMKII was added to the CaM solution. For some trials, CaMKII became phosphorylated by the addition of 10 mM ATP. 100 μM H2O2 or an equivalent volume of buffer was added at 250 s. Finally, addition of 10 mM EGTA at 300 s was used to remove free calcium from the solution, uncoupling CaM/CaMKII binding.

[6] = target: T1, CaMKIIδ; details: after Ca2+/CaM binding
Procedure: It seemed possible that conditions capable of oxidizing methionine residues would also oxidize unprotected cysteine residues. […] In order to comprehensively test the potential role of all accessible cysteines in contributing to oxidation-dependent CaMKII activity, CaMKII activity responses to H2O2 in the presence of iodoacetic acid were measured. Iodoacetic acid is a reagent that blocks oxidation of unprotected cysteine residues (Zangerle e.g., 1992).

[7] = tested on: CaMKIIδ; type: biochemical; details: for H2O2 (oxidation/ROS)-dependent activation of CaMKII mutant: exposed to H2O2, assayed in the presence of EGTA
Procedure: as §2, §3, §4

[8] = tested on: oxCaMKII; assay: Western blot of blood samples for oxidized CaMKII; type: in vivo, mice; details: mice with cancer, N=1 per group
Excerpt: In order to test whether the anti-oxCaMKII antiserum was suitable for detecting increased CaMKII oxidation in blood under disease conditions associated with enhanced oxidative stress, validated mouse models were utilized. […] (See FIG. 15). Western blot of blood samples and ImageJ analysis were used to quantify total and oxidized CaMKII. (See FIG. 15). […] Mice were exposed to cancer cells and treated with either saline or 2DG. Those mice that tailed to develop tumors after 60 days were labeled as controls. (See FIG. 16). Western blot of blood samples and ImageJ analysis were used to quantify total and oxidized CaMKII. (See FIG. 16). […] (See FIG. 16). Mice were divided into four groups based on the presence or absence of cancer and whether or not they received treatment. Western blot of blood samples and ImageJ analysis were used to quantify total and oxidized CaMKII. (See FIG. 18). Both cancer and varied treatments increase blood oxCaMKII in an additive manner.

[9] = target: T2, CaMKIIδ (Mus musculus, UniProt Q6PHZ2, T287A); type: biochemical; details: in the presence of ATP
T2 construct: CaMKIIδ (GenBank #NP_001020609) was generated using the Bac-to-Bac baculovirus system; made in house; host or cells: Bac-to-Bac baculovirus system (Invitrogen)
T2 sequence (Q6PHZ2 2-499 T287A): as the sequence (Q6PHZ2 2-499) above, with T286A counted along it
Procedure: as §2, §3, §4

[10] = target: T3, CaMKIIδ (Mus musculus, UniProt Q6PHZ2, M281V); type: biochemical; details: single point mutation, H2O2
T3 construct: CaMKIIδ (GenBank #NP_001020609) was generated using the Bac-to-Bac baculovirus system; made in house; host or cells: Bac-to-Bac baculovirus system (Invitrogen)
T3 sequence (Q6PHZ2 2-499 M281V): as the sequence (Q6PHZ2 2-499) above, with M280V counted along it
Procedure: as §2, §3, §4

Compound: WT CaMKII: shRNA-resistant wild type rat CaMKIIδ rescue construct expressed by lentivirus
- Rescue of apoptotic response to Iso [1]: fully rescued
- Rescue of apoptotic response to AngII [1]: fully rescued

Compound: OO [H2O2, hydrogen peroxide]
- Dose dependence of activation of wild type CaMKII by H2O2 ([2]; WT CaMKII): close-dependent
- CaMKII activation by H2O2 ([2]; after pretreatment with Ca2+/CaM, in the presence of EGTA): persistent CaMKII activation
- CaMKII activity after exposure to H2O2 ([2]; purified CaMKII, absence of any pre-treatment): no discernable CaMKII activity
- Activation of purified CaMKIIα by H2O2 [3]: activated
- Apoptotic effect ([4]; AC3-I cells compared to WT or p47−/− cells): blunted by more than half
- Apoptosis ([4]; p47−/− cells): caused significant apoptosis
- CaM trapping ([5]; CaMKII exposure to H2O2 for 10 min): failed to induce CaM trapping
- Dissociation kinetics of Ca2+/CaM from autophosphorylated CaMKII ([5]; pretreatment with H2O2 prior to EGTA): no significant effect

Compound: O=C(O)CI [iodoacetic acid]
- H2O2 activity responses of cysteine protected CaMKIIδ ([2]; pretreated with 10 mM iodoacetic acid, vs CaMKIIδ without): equivalent H2O2 activity responses
- Accessibility of cysteine residues to biochemical modification [6]: blocked the accessibility of cysteine residues

Compound: M281/282V
- H2O2 (oxidation/ROS)-dependent activation of CaMKII mutant [7]: completely abolished
- Rescue of apoptotic response to Iso [1]: rescued the apoptotic response to Iso
- Rescue of apoptotic response to AngII [1]: failed to rescue the apoptotic response to AngII

Compound: O=CC[C@@H](O)[C@H](O)[C@H](O)CO [2-deoxyglucose]
- Oxidized CaMKII in blood [8]: markedly increased oxidized CaMKII

Compound: C290V: CaMKII mutant of the regulatory domain cysteine
- Ca2+/CaM-dependent activation [7]: indistinguishable from WT CaMKII
- H2O2 (oxidation/ROS)-dependent activation of CaMKII mutant [7]: indistinguishable from WT CaMKII

Compound: M282V: CaMKII single point mutant M282V
- H2O2 (oxidation/ROS)-dependent activation of CaMKII mutant [7]: completely ablated

Compound: T287A: CaMKII bearing a T287A substitution
- Autophosphorylation (ATP)-dependent Ca2+-independent activity [9]: did not maintain persistent Ca^2+-independent activity
- Ca2+/CaM-dependent activation [7]: normal Ca^2+/CaM-dependent activation
- H2O2 (oxidation/ROS)-dependent activation of CaMKII mutant [7]: activated by H2O2

Compound: M281V: CaMKII single point mutant M281V
- Reduction of oxidation-dependent activation [10]: 65%

Compound: M281C: M281C mutant of CaMKIIδ generated to mimic the substitution in CaMKIIα
- H2O2 (oxidation/ROS)-dependent activation of CaMKII mutant [7]: activated by H2O2
